Assay results taken from patent publication US10251937B2, “Retro-inverso analogs of spadin display increased antidepressant effects” (MEDINCELL, priority 2014, dated 2019).
Ends that are not written are not given here.

How the values were obtained:
dogs = dogs with separation anxiety; cited from earlier work
[1] = molecular target: T1, human two-pore domain potassium channel TREK-1 (Homo sapiens, UniProt O95069); conditions: Kennard et al; cited from earlier work
T1 sequence (O95069 1-426): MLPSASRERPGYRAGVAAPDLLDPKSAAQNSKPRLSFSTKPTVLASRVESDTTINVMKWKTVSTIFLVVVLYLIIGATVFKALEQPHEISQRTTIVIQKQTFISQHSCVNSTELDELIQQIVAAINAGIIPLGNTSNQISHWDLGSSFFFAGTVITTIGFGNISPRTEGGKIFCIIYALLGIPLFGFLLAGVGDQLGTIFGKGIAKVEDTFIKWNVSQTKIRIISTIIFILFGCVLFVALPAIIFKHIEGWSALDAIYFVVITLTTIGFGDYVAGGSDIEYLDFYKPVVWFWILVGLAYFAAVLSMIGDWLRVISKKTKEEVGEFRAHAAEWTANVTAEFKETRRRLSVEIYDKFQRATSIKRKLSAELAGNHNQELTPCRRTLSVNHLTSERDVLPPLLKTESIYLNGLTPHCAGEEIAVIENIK

C57Bl/6J mice [2] = test: Forced Swimming Test (FST) in naive mice; format: in vivo
Experimental: Naïve male C57Bl/6J mice from 7 to 9 weeks old were used in all experiments (Janvier laboratory). Mice were housed 10 animals per cage under a 12-h light/12-h dark cycle (light on at 8:00 am), in a ventilated room at a temperature of 22±1° C. Animals had free access to water and food (A03; SAFE, Augy, France). All experiments were conducted according to policies on the care and use of laboratory animals of the Society for Neuroscience, and also with respect to national laws on animal use. The local Ethics Committee (CIEPAL) approved the experiments.
(§1) Stock solutions were prepared of 2 mg/mL (10^-3M) in distilled water, and before injection spadin solution was diluted in NaCl 0.9% to obtain the different concentrations used for treatments. Corticosterone (Sigma-Aldrich, France) was dissolved in drinking water at the concentration of 3.5 mg/L in the presence of 4.5 g/L of beta-cyclodextrin. […] Fluoxetine (Sigma-Aldrich, France) was dissolved in drinking water at the dose of 80 mg/L and administered during 21 days. For i.p. administration, fluoxetine (TEVA Santé, France) was dissolved in NaCl 0.9% at a concentration of 0.75 mg/mL. The amount injected was 3 mg/kg. Spadin and analogues were administered by i.v. injection. For acute treatment, drugs were administered in a single 100 μL bolus 30 min prior to the beginning of the behavioral tests. For subchronic treatment drugs were injected during 4 consecutive days and behavioral tests were performed on day 5, without additional injection.
The animals were individually placed in a non-escapable cylinder (height 30 cm, diameter 15 cm) filled with 15 cm-water at 22±1° C. The trial was conducted for 6 min. The total period of immobility was manually measured during the last 4 min of the test. A mouse was considered immobile when it remained floating with only slight movements to keep its head above water.

C57Bl/6J mice [3] = test: Novelty Suppressed Feeding (NSF) test; format: in vivo; conditions: 10 μg/kg i.v. daily for 4 days, test on day 5
Experimental: as §1
The NSF paradigm is a two day test protocol. Day one, mice were deprived from food. Day two mice were placed in a highly brightly lit area, in a plastic box (45×45×20 cm), with a floor covered with wooden bedding. The test was carried out during a 10 min period; during this time the latency to eat was measured. During the test a single pellet of food was placed in the center of the box, on a white platform.

[4] = system: dentate gyrus of the mouse hippocampus; test: Hippocampal neurogenesis, BrdU-positive cell count; format: in vivo; conditions: 4 day treatment, 10 μg/kg i.v.
Experimental: One day after the injections of 5-bromo-2-deoxyuridine (BrdU), 12 mg per animal divided in four bolus of 100 μl injected every two hours with spadin or Analog 3 (SEQ ID NO:4) and Analog 8 (SEQ ID NO:9), mice were anesthetized with isoflurane and transcardially perfused with 20 mL of 0.9% NaCl followed by 20 mL paraformaldehyde in 4%/NaCl at a concentration of 0.9%. By using a vibratome (Leica) brains were cut in 40 μm sections, throughout the entire hippocampus. Eight slices, from bregma 3.3 to bregma 5.3, were retained to process the BrdU immunohistochemistry as previously described (Heurteaux, C. et al. Deletion of the background potassium channel TREK-1 results in a depression-resistant phenotype. Nat Neurosci 9, 1134, (2006)). For each BrdU labeling, slices were first incubated with a mouse monoclonal anti-BrdU antibody (1/8000, Becton Dinckinson). […]
It was previously shown that a 4-days subchronic treatment with spadin increased the hippocampal neurogenesis (Mazella, J. et al. Spadin, a sortilin-derived peptide, targeting rodent TREK-1 channels: a new concept in the antidepressant drug design. PLoS Biol 8, e1000355, (2010)). […] The neurogenesis in the dentate gyrus of the mouse hippocampus was analyzed by counting the number of progenitor cells that incorporated the DNA synthesis marker 5-bromo-2′deoxyuridine (BrdU).

| Compound | dogs less depressive as indicated by better behavior (dogs) | effect on human TREK-1 channel [1] | immobility time, FST, acute treatment (C57Bl/6J mice [2]; 10 μg/kg acute i.v., measured 30 minutes after injection, n=10) | immobility time, FST, subchronic treatment (C57Bl/6J mice [2]; 10 μg/kg i.v. once a day for 4 days, test on day 5) | time of immobility, FST time course (C57Bl/6J mice [2]; 3 h after injection (order of listing)) | remaining efficiency, % of the initial efficacy, FST (C57Bl/6J mice [2]; 3 h after the injection) | time of immobility, FST time course (C57Bl/6J mice [2]; 7 h after injection (order of listing)) | time of immobility, FST time course (C57Bl/6J mice [2]; 17 h after injection (order of listing)) | reduction of immobility times, FST (C57Bl/6J mice [2]; after 17 h) | time of immobility, FST time course (C57Bl/6J mice [2]; first (initial) time point after injection, time not given) | remaining efficiency, % of the initial efficacy, FST (C57Bl/6J mice [2]; seven hours after the injection) | latency to feed, NSF (C57Bl/6J mice [3]) | number of BrdU-positive cells in the subgranular zone compared to saline [4] |
| --- | --- | --- | --- | --- | --- | --- | --- | --- | --- | --- | --- | --- | --- |
| CNCCC(Oc1ccc(C(F)(F)F)cc1)c1ccccc1 (stereo not shown) [fluoxetine] | 73% | inhibit | – | – | – | – | – | – | – | – | – | – | – |
| APLPRWSGPIGVSWGLR [spadin, APLPRWSGPIGVSWGLR] | – | – | 107.40 ± 5.05 s | 123.70 ± 7.16 s | 113.2 ± 5.0 s | 84% | 150.8 ± 6.5 s | 175.3 ± 7.5 s | no reduction in the immobility times | 102.4 ± 6.2 s | 30% | 151.11 ± 17.70 s | significantly increased |
